One molecule from publication PMC11509018, “Evaluation of the Role of Tanshinone I in an In Vitro System of Charcot-Marie-Tooth Disease Type 2N” (International Journal of Molecular Sciences, 2024) can be followed below.

The structures appear in SMILES notation. Positions count from the first letter of the chain named.

One assay has as its target T1, AlaRS^R326W (Homo sapiens, UniProt P49588, R326W).
T1 construct: made in house; host or cells: E. coli BL21 (DE3), pET-21a
T1 sequence (P49588 1-968 R326W): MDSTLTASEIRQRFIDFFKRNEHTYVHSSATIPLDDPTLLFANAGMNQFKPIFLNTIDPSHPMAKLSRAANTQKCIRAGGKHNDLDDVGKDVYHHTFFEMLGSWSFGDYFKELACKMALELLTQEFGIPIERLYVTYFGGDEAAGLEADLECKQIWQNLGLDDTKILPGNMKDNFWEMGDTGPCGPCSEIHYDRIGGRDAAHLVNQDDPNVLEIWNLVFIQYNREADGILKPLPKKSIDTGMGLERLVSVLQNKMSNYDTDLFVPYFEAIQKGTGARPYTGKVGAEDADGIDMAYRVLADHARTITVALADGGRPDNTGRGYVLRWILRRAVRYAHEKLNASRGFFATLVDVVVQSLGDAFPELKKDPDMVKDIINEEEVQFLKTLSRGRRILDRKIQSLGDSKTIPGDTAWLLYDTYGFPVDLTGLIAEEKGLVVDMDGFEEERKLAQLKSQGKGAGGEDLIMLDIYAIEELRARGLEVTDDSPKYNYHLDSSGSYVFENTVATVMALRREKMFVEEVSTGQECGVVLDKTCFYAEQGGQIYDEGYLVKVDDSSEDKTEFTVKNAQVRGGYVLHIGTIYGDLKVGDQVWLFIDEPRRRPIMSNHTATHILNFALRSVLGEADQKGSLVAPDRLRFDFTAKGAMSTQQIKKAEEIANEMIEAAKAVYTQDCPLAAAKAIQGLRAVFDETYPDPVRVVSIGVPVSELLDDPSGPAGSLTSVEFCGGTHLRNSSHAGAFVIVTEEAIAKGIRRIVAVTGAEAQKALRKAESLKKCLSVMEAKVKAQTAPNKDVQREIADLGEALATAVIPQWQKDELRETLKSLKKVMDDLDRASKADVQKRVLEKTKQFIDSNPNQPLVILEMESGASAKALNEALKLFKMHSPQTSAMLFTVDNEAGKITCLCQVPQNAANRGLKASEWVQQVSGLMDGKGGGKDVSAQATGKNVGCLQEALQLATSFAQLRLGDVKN
Briefly: Biolayer interferometry (BLI). The format is binding. As to conditions: immobilized AlaRS^R326W, mean ± SD, triplicate. The procedure: (§1) Furthermore, we examined the interaction of Tanshinone I with additional AlaRS CMT mutants capable of binding to Nrp1 and causing conformational changes by BLI and proteolysis assays on additional related mutants. […] To further quantify the binding of small molecules to mutant proteins, binding experiments with AlaRS^R329H proteins and small molecules were conducted using an Octet R8 system (ForteBio, Fremont, CA, USA). Purified His-tagged AlaRS^R329H proteins (500 μg/mL) were captured on Ni-NTA biosensors (ForteBio, Fremont, CA, USA), achieving a saturation response of 4–5 nm after 300 s. The biosensors were then transferred to Octet buffer (PBS with 0.01% Tween 20) for 180 s to remove loosely bound, nonspecific proteins and to establish a stable baseline. Following this, the sensors were immersed in diluted Tanshinone I (2.5–100 μM in assay buffer) for 120 s to record the association signal, and then transferred back into Octet buffer to monitor the dissociation signal for 120 s. Reference wells containing buffer instead of Tanshinone I were included to correct for baseline shifts. Additionally, a parallel set of Ni-NTA sensors in buffer served as negative reference controls to account for nonspecific binding of the compounds to the biosensor surface. The data were processed using a double reference subtraction protocol to eliminate nonspecific signals, background noise, and signal drifts caused by biosensor variability. All assays were performed in 96-well black plates with a total volume of 200 μL per well at 30 °C. Data analysis, including correction and curve fitting, was carried out using Octet® Analysis Studio 12.2.2.26. The experiment was repeated three times.
In general terms: Biolayer interferometry detects binding as a change in optical thickness at a sensor tip.

The target in a further assay is T2, AlaRS^E337K (Homo sapiens, UniProt P49588, E337K).
T2 construct: made in house; host or cells: E. coli BL21 (DE3), pET-21a
T2 sequence (P49588 1-968 E337K): T1 sequence (P49588 1-968 R326W) with W326R, E337K
Briefly: Biolayer interferometry (BLI). Format: binding. As to conditions: immobilized AlaRS^E337K, mean ± SD, triplicate. The protocol: as §1

The term Kd denotes the concentration at which binding is half-saturated. Lower therefore signals tighter binding. Regarding `Cc1coc2c1C(=O)C(=O)c1c-2ccc2c(C)cccc12` [Tanshinone I], the equilibrium dissociation constant (Kd) at AlaRS^R326W came out at 39.6 ± 6.4 µM; at AlaRS^E337K, 19.2 ± 4.2 µM.
